{
  "source": "patent US20190314256A1",
  "about": "“COSMETIC BASE INCLUDING AMIDE ALCOHOL ESTER, AND COSMETIC” (Kokyu Alcohol Kogyo Co., Ltd., priority 2016, published 2019)",
  "type_in_all_cases": "physicochemical",
  "key": {"[1]": {"assay": "Solubility and gelling ability with each liquid; critical gelation concentration by sample tube inversion method", "conditions": "physical form of the ester"}, "[2]": {"assay": "Solubility and gelling ability with each liquid; critical gelation concentration by sample tube inversion method", "design": "key: S: Soluble; I: Insoluble/separation; G: Gel; T: Thickening; EG: Emulsion gel", "method": "The amide alcohol or ester of amide alcohol was heated and mixed with each liquid, and the critical gelation concentration was measured by sample tube inversion method.\nSample tube used: used tube: Maruemu screw tube No. 7 (trunk diameter 35 mm total length 78 mm)"}, "Viscosity": {"assay": "Viscosity"}, "[3]": {"assay": "Pigment dispersibility (wet point WP and flow point FP)", "conditions": "titanium oxide, zinc oxide, iron oxide", "from_the_text": "1. Weigh 1.5 g of a pigment in mortar. 2. Gradually add an oil dropwise and knead with a pestle. 3. Check the weight of the oil at each point of WP and FP. 4. Calculate WP and FP per 100 g of the pigment. WP: Wet point (the lower the wet point, the better the wettability of the pigment.) FP: Flow point (the lower the flow point, the better the dispersibility of the pigment.)"}},
  "data": [
    {"compound": "CCCCCCCCCCCCNC(=O)CCCOC(=O)CCCCCCCCCCC", "note": "[LBA-L, N-laurylbutyramide-4-lauric acid ester]", "values": [
      {"measurement": "Property", "setting": "[1]", "value": "Solid"},
      {"measurement": "solubility and gelling ability", "setting": "[2]; Ethanol", "value": "G"},
      {"measurement": "solubility and gelling ability", "setting": "[2]; Glycerin", "value": "I"},
      {"measurement": "solubility and gelling ability", "setting": "[2]; Octyldodecanol", "value": "G"},
      {"measurement": "solubility and gelling ability", "setting": "[2]; Octyldodecyl myristate", "value": "G"},
      {"measurement": "solubility and gelling ability", "setting": "[2]; Squalane", "value": "G"},
      {"measurement": "solubility and gelling ability", "setting": "[2]; Triethylhexanoin", "value": "G"},
      {"measurement": "solubility and gelling ability", "setting": "[2]; Water", "value": "I"}
    ]},
    {"compound": "CCCCCCCCCCCC(=O)OCCCC(=O)NC1CCCCC1", "note": "[CHBA-L, N-cyclohexylbutyramide-4-lauric acid ester]", "values": [
      {"measurement": "Property", "setting": "[1]", "value": "Solid"},
      {"measurement": "solubility and gelling ability", "setting": "[2]; Ethanol", "value": "S"},
      {"measurement": "solubility and gelling ability", "setting": "[2]; Glycerin", "value": "I"},
      {"measurement": "solubility and gelling ability", "setting": "[2]; Octyldodecanol", "value": "G"},
      {"measurement": "solubility and gelling ability", "setting": "[2]; Octyldodecyl myristate", "value": "G"},
      {"measurement": "solubility and gelling ability", "setting": "[2]; Squalane", "value": "G"},
      {"measurement": "solubility and gelling ability", "setting": "[2]; Triethylhexanoin", "value": "G"},
      {"measurement": "solubility and gelling ability", "setting": "[2]; Water", "value": "I"}
    ]},
    {"compound": "CCCCCCCCCCCC(=O)OCCCC(=O)NCCCCCCCC", "note": "[OBA-L, N-octylbutyramide-4-lauric acid ester]", "values": [
      {"measurement": "Property", "setting": "[1]", "value": "Solid"},
      {"measurement": "solubility and gelling ability", "setting": "[2]; Ethanol", "value": "S"},
      {"measurement": "solubility and gelling ability", "setting": "[2]; Glycerin", "value": "I"},
      {"measurement": "solubility and gelling ability", "setting": "[2]; Octyldodecanol", "value": "G"},
      {"measurement": "solubility and gelling ability", "setting": "[2]; Octyldodecyl myristate", "value": "G"},
      {"measurement": "solubility and gelling ability", "setting": "[2]; Squalane", "value": "G"},
      {"measurement": "solubility and gelling ability", "setting": "[2]; Triethylhexanoin", "value": "G"},
      {"measurement": "solubility and gelling ability", "setting": "[2]; Water", "value": "I"}
    ]},
    {"compound": "CCCCCCCCCCCC(=O)OCCCC(=O)NCC(CC)CCCC", "note": "(centres unmarked) [EHBA-L, N-2 ethylhexylbutyramide-4-lauric acid ester]", "values": [
      {"measurement": "Property", "setting": "[1]", "value": "Solid"},
      {"measurement": "solubility and gelling ability", "setting": "[2]; Ethanol", "value": "S"},
      {"measurement": "solubility and gelling ability", "setting": "[2]; Glycerin", "value": "I"},
      {"measurement": "solubility and gelling ability", "setting": "[2]; Octyldodecanol", "value": "S"},
      {"measurement": "solubility and gelling ability", "setting": "[2]; Octyldodecyl myristate", "value": "S"},
      {"measurement": "solubility and gelling ability", "setting": "[2]; Squalane", "value": "I"},
      {"measurement": "solubility and gelling ability", "setting": "[2]; Triethylhexanoin", "value": "I"},
      {"measurement": "solubility and gelling ability", "setting": "[2]; Water", "value": "I"}
    ]},
    {"compound": "N-2 ethylhexylbutyramide 4-isostearic acid ester [EHBA-IS]", "values": [
      {"measurement": "viscosity", "setting": "Viscosity", "value": "approximately 270 mPa·s"},
      {"measurement": "pigment dispersibility", "setting": "[3]", "value": "excellent pigment dispersibility"}
    ]},
    {"compound": "N-cyclohexylbutyramide-4-isostearic acid ester [CHBA-IS]", "values": [
      {"measurement": "viscosity", "setting": "Viscosity", "value": "approximately 230 mPa·s"},
      {"measurement": "pigment dispersibility", "setting": "[3]", "value": "excellent pigment dispersibility"}
    ]},
    {"compound": "CCCCCCCCCCCCCC(=O)OCCCC(=O)NCCCCCCCCCCCC", "note": "[LBA-M, N-laurylbutyramide-4-myristic acid ester]", "values": [
      {"measurement": "Property", "setting": "[1]", "value": "Solid"},
      {"measurement": "solubility and gelling ability", "setting": "[2]; Ethanol", "value": "G"},
      {"measurement": "solubility and gelling ability", "setting": "[2]; Glycerin", "value": "I"},
      {"measurement": "solubility and gelling ability", "setting": "[2]; Octyldodecanol", "value": "G"},
      {"measurement": "solubility and gelling ability", "setting": "[2]; Octyldodecyl myristate", "value": "G"},
      {"measurement": "solubility and gelling ability", "setting": "[2]; Squalane", "value": "G"},
      {"measurement": "solubility and gelling ability", "setting": "[2]; Triethylhexanoin", "value": "G"},
      {"measurement": "solubility and gelling ability", "setting": "[2]; Water", "value": "I"}
    ]}
  ]
}
